How the values were obtained:
[1] = system: Panc1 pancreatic cancer cell line; experiment: Cell proliferation assay, pancreatic cancer cell lines; assay type: cell-based
Description: (§1) The MTT is a colorimetric assay to determine the cell proliferation rate. The yellow tetrazolium MTT (3-(4, 5-dimethylthiazolyl-2)-2, 5-diphenyltetrazolium bromide) is reduced, by metabolically active cells, in part by the action of dehydrogenase enzymes, to generate reducing equivalents such as NADH and NADPH. The resulting intracellular purple formazan can be solubilized and quantified by spectrophotometric means. The signals produced is directly proportional to the cell numbers. Describing the MTT assay in detail, experiments were done using six-point or 9 point drug titrations in multi-well tissue culture dishes, with outer rows left empty. Cells were suspended in complete media at densities of between 10^3 and 10^4 cell/ml, respectively, and added per well. The appropriate medium (200 μl) was then added. Twenty-four hours later, 10 μl of MTS solution, were added to one plates to determine the activity at the time of compound addition (T0). This plate was incubated at 37° for 4 hours and the optical density was measured on a Molecular Devices Thermomax at 490 nm using the Softmax program. The T0 plate served as a reference for initial activity at the beginning of the experiment.
(§2) Compound addition began 24 hours after seeding, the same time as the T0 determination. Serial dilutions at 4-fold 2-fold, 1-fold, 0.5-fold, 0.25-fold and 0.125-fold of previously determined IC50 values of each compound were made in a 96-deep well plate with the highest concentrations on the edge of the plate. Each of the six dilutions were added in triplicate and complete medium was added to the empty outer rows, without cells. The compounds were added to the plates singly or in combination with Compound III (LBH589). The plates were incubated at 37° C. for 72 hours from seeding. The MTS solution was added (as for the T0 plate) and read four hours later. In order to analyze the data, the average value of media alone (background) was subtracted from each experimental well and the triplicate values were averaged for each compound dilution. The following formulas were used to calculate percent growth.
(§3) If X>T0, % Growth=100×(X−T0)/(GC−T0))
(§4) If X<T0, % Growth=100×(X−T0)/T0)
(§5) T0=average value of T0 minus background
(§6) GC=average value of untreated cells (in triplicate) minus background X=average value, of compound treated cells (in triplicate) minus background
(§7) IC50 the concentration of LBH589 required to inhibit cell growth by 50% and LD50s the concentration required to reduce cell number (kill cells) to 50% the original innoculum were determined. The “% Growth” was plotted against compound concentration and used to calculate IC50s and LD50s, employing the user-defined spline function in Microsoft Excel.
(§8) Pancreatic cancer cell lines were treated with DMSO vehicle control or varying concentrations of LBH589 for 3 days. Cell proliferation was measured on the day of cell plating and on the third day post-treatment. IC50 and LD50 values were calculated as described above.

[2] = system: Panc2.03 pancreatic cancer cell line; experiment: as above; assay type: cell-based
Description: as §1, §2, §3, §4, §5, §6, §7, §8

[3] = system: Capan1 pancreatic cancer cell line; experiment: as above; assay type: cell-based
Description: as §1, §2, §3, §4, §5, §6, §7, §8

[4] = system: Hs766T pancreatic cancer cell line; experiment: as above; assay type: cell-based
Description: as §1, §2, §3, §4, §5, §6, §7, §8

[5] = system: AsPC1 pancreatic cancer cell line; experiment: as above; assay type: cell-based
Description: as §1, §2, §3, §4, §5, §6, §7, §8

[6] = system: Panc3.27 pancreatic cancer cell line; experiment: as above; assay type: cell-based
Description: as §1, §2, §3, §4, §5, §6, §7, §8

[7] = system: BxPC3 pancreatic cancer cell line; experiment: as above; assay type: cell-based
Description: as §1, §2, §3, §4, §5, §6, §7, §8

[8] = system: Panc4.03 pancreatic cancer cell line; experiment: as above; assay type: cell-based
Description: as §1, §2, §3, §4, §5, §6, §7, §8

[9] = system: MiaPaCa2 pancreatic cancer cell line; experiment: as above; assay type: cell-based
Description: as §1, §2, §3, §4, §5, §6, §7, §8

[10] = system: SU.86.86 pancreatic cancer cell line; experiment: as above; assay type: cell-based
Description: as §1, §2, §3, §4, §5, §6, §7, §8

[11] = system: Panc10.05 pancreatic cancer cell line; experiment: as above; assay type: cell-based
Description: as §1, §2, §3, §4, §5, §6, §7, §8

[12] = system: HPAC pancreatic cancer cell line; experiment: as above; assay type: cell-based
Description: as §1, §2, §3, §4, §5, §6, §7, §8

[13] = system: 12 pancreatic cancer cell lines; experiment: Cell proliferation assay, panel summary; assay type: cell-based; conditions: 3 days treatment
Description: as §1, with “Twenty-four hours later, 10 μl of MTS solution, were added to one plates to determine the activity at the time of compound addition (T0).” left out, “The T0 plate served as a reference for initial activity at the beginning of the experiment.” left out
Compound addition began 24 hours after seeding, the same time as the T0 determination. […] The MTS solution was added (as for the T0 plate) and read four hours later. […]
as §8

[14] = system: HCT116 colon cancer cells; experiment: HCT116 xenograft model, tumor growth; assay type: in vivo, Female athymic nude mice
Experimental: Female athymic nude mice were implanted subcutaneously with HCT116 colon cancer cells. […] Mice were treated with LBH589 at 5, 10 or 20 mg/kg intravenously (iv) 5 times a week for 3 weeks or 75 mg/kg of 5-Fluorouracil intravenously once a week for 3 weeks. Animals were calipered weekly. Compound activity was determined as the percent change in tumor volume of treated animals over control animals (% T/C). The percentage of regression was determined as the percent change in the final tumor volume at the end of the study over the starting tumor volume. […] The results are described in FIG. 1.

[15] = system: Colo320 colon cancer cell line; experiment: Monolayer growth inhibition assay (MTT/MTS); assay type: cell-based
Description: as §1, §2, §3, §4, §5, §6, §7
Colon cancer cell lines were treated with DMSO vehicle control or varying concentrations of LBH589 for 3 days. Cell proliferation was measured on the day of cell plating and on the third day post-treatment. IC50 and LD50 values were calculated as described above.

[16] = 3 days, concentration reducing cell number to 50% of original inoculum

## Cc1[nH]c2ccccc2c1CCNCc1ccc(/C=C/C(=O)NO)cc1 [LBH589, N-hydroxy-3-[4-[[[2-(2-methyl-1H-indol-3-yl)ethyl]-amino]methyl]phenyl]-2E-2-propenamide]
[1]; Homo sapiens, PANC-1, 72 h, Panc1, 3 days treatment
  IC50: 18.9 nM
[1]; Panc1, 3 days, concentration reducing cell number to 50% of original inoculum
  LD50: 175.4 nM
[2]; Homo sapiens, Panc203, 72 h, Panc2.03, 3 days treatment
  IC50: 22.4 nM
[2]; Panc2.03, 3 days, concentration reducing cell number to 50% of original inoculum
  LD50: 599.5 nM
[3]; Capan1, 3 days, concentration reducing cell number to 50% of original inoculum
  LD50: 191.5 nM
[3]; Homo sapiens, CAPAN-1, 72 h, Capan1, 3 days treatment
  IC50: 55.6 nM
[4]; 72 h, 3 days treatment
  IC50: 14.1 nM
[4]; [16]
  LD50: 119.9 nM
[5]; AsPC1, 3 days, concentration reducing cell number to 50% of original inoculum
  LD50: 372.4 nM
[5]; Homo sapiens, 72 h, AsPC1, 3 days treatment
  IC50: 25.1 nM
[6]; Panc3.27, 3 days, concentration reducing cell number to 50% of original inoculum
  LD50: 276.8 nM
[6]; Pancreatic cancer cell, 72 h, Panc3.27, 3 days treatment
  IC50: 38.5 nM
[7]; BxPC3, 3 days, concentration reducing cell number to 50% of original inoculum
  LD50: 104.8 nM
[7]; Homo sapiens, BXPC-3, 72 h, BxPC3, 3 days treatment
  IC50: 15.9 nM
[8]; Panc4.03, 3 days, concentration reducing cell number to 50% of original inoculum
  LD50: >10 µM
[8]; Pancreatic cancer cell, 72 h, Panc4.03, 3 days treatment
  IC50: 20.3 nM
[9]; Homo sapiens, MIA PaCa-2, 72 h, MiaPaCa2, 3 days treatment
  IC50: 14.1 nM
[9]; MiaPaCa2, 3 days, concentration reducing cell number to 50% of original inoculum
  LD50: 59.5 nM
[10]; Homo sapiens, 72 h, SU.86.86, 3 days treatment
  IC50: 51 nM
[10]; SU.86.86, 3 days, concentration reducing cell number to 50% of original inoculum
  LD50: 170.4 nM
[11]; Homo sapiens, Panc1005, 72 h, Panc10.05, 3 days treatment
  IC50: 31.8 nM
[11]; Panc10.05, 3 days, concentration reducing cell number to 50% of original inoculum
  LD50: 282.4 nM
[12]; [16]
  LD50: 2051.6 nM
[12]; Homo sapiens, 72 h, 3 days treatment
  IC50: 123 nM
[13]; all 12 pancreatic cancer cell lines
  IC50 values: low nanomolar
[13]; majority of the pancreatic cancer cell lines (n=10)
  LD50: < 1 µM
[14]; 5 mg/kg intravenously 5 times a week for 3 weeks
  % T/C (percent change in tumor volume of treated over control animals): 17%
[14]; 10 mg/kg intravenously 5 times a week for 3 weeks
  % T/C (percent change in tumor volume of treated over control animals): 6%
[14]; 20 mg/kg intravenously 5 times a week for 3 weeks
  tumor regression (percent change in final tumor volume over starting tumor volume): 8%
[15]; Colo320, 3 days, concentration reducing cell number to 50% of original inoculum
  LD50: 82.90 nM
[15]; Homo sapiens, COLO 320, 72 h, Colo320, 3 days treatment
  IC50: 6.5 nM
